# Assay results taken from patent US8597700B2, “Method of treating osteoporosis with extract of Dioscorea sp” (National Yang-Ming University, priority 2002, dated 2013).
# Marks after values point to notes of the source that are not given here.
# Experiments:
# osteoprogenitor cells = test: Proliferative response of osteoprogenitor cells of mice (MTT assay); format: cell-based, C3H/HeN mice; details: 0.01 and 0.1 μg/ml, 72 hours
# Description: Under sterile conditions, femoral bones of the SPF grade of C3H/HeN mouse were obtained and injected with DMEM/F12. The bone marrow cells were flushed out and filtered through No. 53 sterile nylon mesh. The single cell suspension obtained was mixed with DMEM/F12 culture medium containing 15% FCS to adjust the concentration of the cells.
# The cells were cultured in DMEM/F12 medium containing 15% FCS, 50 μg/ml ascorbic acid, 10 mM sodium β glycerophosphate and 10 nM dexamethasone in a T-flask for 6 days. The culture medium was renewed every 3 days. The cell concentration was 10^6 cells/cm^2. On the 6th day, the suspended cells and culture medium were drawn out. The adhering cell layer was washed with 1×PBS that had been warmed to room temperature, and then treated with 0.01% EDTA at 37° C. for 5 to 10 minutes. […]
# The cells obtained in preparatory step 4 were dispersed using a 22 G gauge needle and suspended in DMEM/F12 medium containing 15% FCS, 50 μg/ml ascorbic acid, 10 mM sodium β-glycerophosphate and 10 nM dexamethazone to form a concentration of 4.5×10^4 cells/ml. […] 1 mg/ml MTT solution was added in each well and reacted for 4 hours MTT lysis buffer (20% SDS-50% DMF) was added in each well in the amount of 150 μl/well and reacted for 16 hours, and the absorbance was measured at O.D. 570 nm for the resultant cell suspension in each well.
# [1] = test system: bone marrow cells of C3H mice; test: Proliferation (MTT) and morphological changes of bone marrow cells in the presence of EGF; format: cell-based, C3H/HeN mice
# Description: (§1) Under sterile conditions, SPF grade C3H/HeN mice were sacrificed and their femoral bones were injected with a liquid culture of DMEM/F12 to flush out the bone marrow cells. The cells were filtered through sterile No. 53 nylon mesh. The single cell suspension so obtained was mixed with DMEM/F12 culture medium containing N2 to adjust to the proper concentration.
# 1×10^4 cells/well bone marrow cells of mice obtained in preparatory step 3 were seeded in a 96-well microplate containing DMEM/F12 culture medium with N2 and 10 ng/ml EGF and incubated in a 5% CO2 incubator at 37° C for 24 hrs. The extract and DHEA were added into different wells respectively. Wells containing pure culture medium into which no methanol extract and DHEA were added, and which were subjected to the same incubation procedure, were used as […]. In addition, for use as positive control, the same procedure as that for control was repeated except that 50 ng/ml EGF was used. The proliferation responses were measured by a MTT assay. In accordance with the MTT assay, each of the wells was added with 1 mg/ml MTT solution and, after 4 hours of reaction, MTT lysis buffer (20% SDS-50% DMF) was added thereinto in an amount of 150 μl/well. The resultant mixture was allowed to be reacted for 16 hours. The absorbance was measured at O.D. 570 nm.
# [2] = test system: bone marrow cells of mice; test: Proliferation (MTT) and morphologic change of bone marrow cells in the presence of GM-CSF; format: cell-based
# Description: as §1
# 1×10^4 cells/well bone marrow cells of mice obtained in preparatory step 3 were seeded in each well of the 96-well microplate, cultured in DMEM/F 12 culture medium containing N2, and 4 ng/ml mGM-CSF. Methanol extracts of Dioscorea sp. with different concentrations were respectively added into the resultant cultured cells in the different wells. The resultant methanol extract containing cultured cells in different wells were then incubated in a 5% CO2 incubator at 37° C. for 14 days. The cells cultured in DMEM/F12 medium containing N2 and 20 ng/ml mGM-CSF is used as positive control. A MTT assay was performed. In this respect, 1 mg/ml MTT solution was added in each well so as to react with the cultured cells therein for 4 hours. MTT lysis buffer (20% SDS-50% DMF) was added in a n amount of 150 μl/well. The resultant mixture was allowed to react for 16 hours. The absorbance was measured at O.D. 570 nm.
smiles,measurement,setting,value
"C[C@]12CC[C@H](O)CC1=CC[C@@H]1[C@@H]2CC[C@]2(C)C(=O)CC[C@@H]12 [DHEA, Dehydroepiandrosterone]",proliferation of the osteoprogenitor cells,osteoprogenitor cells,no effect
same,Proliferation Index,[1]; 0.0001 μg/ml,0.99
same,Proliferation Index,[1]; 0.001 μg/ml,0.64
same,Proliferation Index,[1]; 0.01 μg/ml,0.65
same,Proliferation Index,[1]; 0.1 μg/ml,0.67
same,Proliferation Index,[1]; 1 μg/ml,0.70
same,Proliferation Index,[2]; 0.0001 μg/ml,0.99
same,Proliferation Index,[2]; 0.001 μg/ml,1.15
same,Proliferation Index,[2]; 0.01 μg/ml,1.04
same,Proliferation Index,[2]; 0.1 μg/ml,1.13
same,Proliferation Index,[2]; 1 μg/ml,1.11
same,Proliferation Index,[2]; 10 μg/ml,1.19*
same,differentiation of bone marrow cells,[2]; 20-week old adult mouse bone marrow cells,enhancing cell differentiation
